Measurements taken from publication PMC12186257, “Serendipitous and Systematic Chemoproteomic Discovery of MBLAC2, HINT1, and NME1‑4 Inhibitors from Histone Deacetylase-Targeting Pharmacophores” (ACS Chemical Biology, 2025).

How the values were obtained:
[1] = target: recombinant HINT1 (hHint1) (Homo sapiens, UniProt P49773); test: HINT1 enzyme activity assay (TrpA hydrolysis, fluorescence); type: biochemical; conditions: hHint1 0.002 µM, TrpA 0.5 µM, 25 °C
Description: While the biologically relevant substrates of HINT1 have not been clearly elucidated, the protein has been implicated in opioid receptor signaling, − regulation of the melanoma-associated transcription factor MITF, , and DNA damage repair. These functions position HINT1 as a potential pharmacological target for treating conditions such as opioid resistance or melanoma. The only reported HINT1-targeting pharmacophores are nucleoside-based nonhydrolyzable substrate analogs, such as the carbamate TrpGC (Figure a). , We evaluated the inhibitory potential of KV-24 and KV-30 in enzyme activity assays using recombinant HINT1. […] This discrepancy could be attributed to reduced affinity for the recombinant enzyme due to the absence of post-translational modifications (PTMs), cofactors, or interaction partners that enhance drug binding. Alternatively, it might result from substrate dilution in the lysate, whereas high substrate concentrations in the enzyme activity assay require the inhibitor to compete more effectively.
Mouse brain proteomics – LC-MS/MS. Proteome analysis of brain mouse tissue samples was performed on a micro-flow LC timsTOF HT setup described in detail in REF14. Liquid chromatography in micro-flow mode was performed on a Vanquish Neo UHPLC System (Thermo Fisher Scientific) at a flow rate of 50 µL/min. […] 10 µg of peptide mix was injected and analyzed using a 58 min gradient starting at 1% B up to 45% B (1 h method). […]
Mouse proteomics data analysis. The data files were analyzed with DIA-NN 1.8.1. […] The resulting protein group tables were further analyzed by Perseus 1.6.2.2. […]
CME of transferrin and confocal microscopy analyses.For transferrin uptake experiments HeLa cells were seeded on Matrigel-coated coverslips, and incubated with 0.1 % DMSO, or with 100 µM dynasore, 20 µM KV50, 2 µM KV65, or 2 µM KV79 in media containing 10% FCS at 37°C for 20 h. […] All inhibitor treatments were performed in duplicate, to enable quantification of surface levels of transferrin receptors, and to assess the capability of transferrin receptor endocytosis. […]

[2] = system: recombinant NME1–4; test: nucleoside diphosphate kinase activity assay (ATP production from ADP and GTP, Kinase-GLO); type: biochemical; conditions: in vitro
Description: To evaluate whether KV-50 binding affects NME activity, we performed enzyme activity assays using recombinant NME1–4. The assay measured NME-catalyzed production of ATP from ADP (150 μM) and GTP (150 μM).
Nucleotide diphosphate kinase activity assays. The phosphotransfer activity of the NDPKs (NME1-4) was measured in a reaction mixture containing buffer A (20 mM Tris-HCl pH 8.0, 150 mM NaCl, and 1 mM MgCl2). All the samples were pipetted in replicates on a 384 well plate. One volume of the respective NDPK protein solution (NME1-4) was added from stock proteins (diluted in buffer a to a concentration of 300 pM) to the wells in four replicates. To these wells, one volume of the inhibitors (Six dilutions were prepared, starting with a 30 µM stock solution and then performing three-fold serial dilutions) was added and incubated at room temperature for 30 minutes. Then, one volume of the substrate mixture (300 μM GTP and 30 μM ADP) was added to the protein-inhibitor mixture-containing wells and incubated at room temperature for 30 minutes. Finally, three volumes of the Kinase-GLO reagent (Promega V6711) containing an ATP-dependent firefly luciferase were added to all the wells and five minutes later, the luminescence was measured using a plate reader. Eight different concentrations of ATP (0 - 10 μM) were used as standards for a calibration curve to calculate the amount of ATP produced by the different NDPKs.

[3] = system: Toxoplasma gondii; parameters: method as in PMID 33360687, PMID 35483428, PMID 38431113, PMID 29414107; conditions: in human host cells; cited from earlier work

Chain of recombinant HINT1 (hHint1) (P49773 whole entry): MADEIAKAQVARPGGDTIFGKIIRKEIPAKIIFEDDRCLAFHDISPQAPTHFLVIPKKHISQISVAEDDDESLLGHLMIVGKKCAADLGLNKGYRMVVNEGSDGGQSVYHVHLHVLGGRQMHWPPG

O=C(NO)c1ccc(-c2nc3ccccc3n3cccc23)cc1 [KV-24]
IC50 [1]: 12.3 µM | effect on NME enzyme activity [2]: only modestly reduced NME enzyme activity | inhibition of proliferation of protozoans [3]: potently inhibit the proliferation

O=C(NO)c1ccc(-c2nc3ccccc3c3ccccc23)cc1 [KV-30]
IC50 [1]: 12.6 µM | effect on NME enzyme activity [2]: only modestly reduced NME enzyme activity | inhibition of proliferation of protozoans [3]: potently inhibit the proliferation
